Earlier results, collected in patent publication US11005050B2, “Metal complexes” (Merck Patent GmbH, priority 2014, dated 2021).

Details: prior-art statement; for example in aromatic hydrocarbons or chlorobenzene

## c1cnc2c(c1)ccc1ccc[c]([Ir]([c]3cccc4ccc5cccnc5c34)[c]3cccc4ccc5cccnc5c34)c12 [tris(benzo[h]quinoline)iridium(III)]
  solubility in common organic solvents: virtually insoluble
